For one assay, the target named is T1, hAR (Homo sapiens, UniProt P10275).
T1 construct: made in house; host or cells: baculovirus/Sf9 insect cells
T1 sequence (P10275 1-920): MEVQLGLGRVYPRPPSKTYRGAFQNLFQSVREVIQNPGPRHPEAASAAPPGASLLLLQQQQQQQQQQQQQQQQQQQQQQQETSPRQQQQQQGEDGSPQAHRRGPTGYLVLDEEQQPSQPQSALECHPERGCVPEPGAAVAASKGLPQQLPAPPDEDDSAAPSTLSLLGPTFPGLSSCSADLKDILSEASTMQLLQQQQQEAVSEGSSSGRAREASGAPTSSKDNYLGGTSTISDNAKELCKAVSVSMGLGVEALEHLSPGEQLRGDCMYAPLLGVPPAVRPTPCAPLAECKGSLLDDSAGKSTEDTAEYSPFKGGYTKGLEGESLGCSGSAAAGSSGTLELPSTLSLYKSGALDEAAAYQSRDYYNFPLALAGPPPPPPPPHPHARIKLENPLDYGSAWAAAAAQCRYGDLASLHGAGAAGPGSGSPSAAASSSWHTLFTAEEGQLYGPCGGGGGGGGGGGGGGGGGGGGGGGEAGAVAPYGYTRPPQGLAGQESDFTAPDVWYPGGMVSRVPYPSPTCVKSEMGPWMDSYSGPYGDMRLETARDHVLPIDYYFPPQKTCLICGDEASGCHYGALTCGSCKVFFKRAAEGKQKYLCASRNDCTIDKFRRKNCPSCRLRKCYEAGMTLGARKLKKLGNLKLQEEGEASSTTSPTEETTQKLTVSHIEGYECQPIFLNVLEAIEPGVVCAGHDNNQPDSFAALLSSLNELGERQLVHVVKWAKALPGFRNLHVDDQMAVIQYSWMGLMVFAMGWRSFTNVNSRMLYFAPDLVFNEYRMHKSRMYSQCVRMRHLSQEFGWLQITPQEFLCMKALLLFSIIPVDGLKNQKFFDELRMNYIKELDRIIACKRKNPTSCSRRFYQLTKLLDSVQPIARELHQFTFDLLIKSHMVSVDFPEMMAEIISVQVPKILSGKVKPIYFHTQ
Nature of the assay: Competitive binding analysis on baculovirus/Sf9 generated hAR extracts with 3H-DHT tracer. The following applies: AR Binding IC50, hAR extract, 1 nM 3H-DHT, one hour at 4° C.; mean of multiple tests. Here is the method: The description below describes how the assay was carried out.
Competitive binding analysis was performed on baculovirus/Sf9 generated hAR extracts in the presence or absence of different concentrations of test agent and a fixed concentration of ^3H-dihydrotestosterone (^3H-DHT) as tracer. This binding assay method is a modification of a protocol previously described (Liao S., et. al. J. Steroid Biochem. 20:11-17 1984). Briefly, progressively decreasing concentrations of compounds are incubated in the presence of hAR extract (Chang et al. P.N.A.S. Vol. 89, pp. […], 1992), hydroxylapatite, and 1 nM ^3H-DHT for one hour at 4° C. Subsequently, the binding reactions are washed three times to completely remove excess unbound ^3H-DHT. hAR bound ^3H-DHT levels are determined in the presence of compounds (i.e. competitive binding) and compared to levels bound when no competitor is present (i.e. maximum binding). Compound binding affinity to the hAR is expressed as the concentration of compound at which one half of the maximum binding is inhibited.
Broadly, the IC50 is the point on the concentration scale where inhibition reaches its midpoint. Regarding `CO[C@H]1CCC[C@@H]1Oc1ccc(C#N)c(Cl)c1` (relative stereo) [Example 35, 2-Chloro-4-(trans-2-methoxy-cyclopentyloxy)-benzonitrile], the half-maximal inhibitory concentration (IC50) amounted to 97 nM. The same measure, in the same setting: the same measure for `CO[C@@H]1CCCC[C@H]1Oc1ccc(C#N)c(Cl)c1` (relative stereo) [Example 39, 2-Chloro-4-(trans-2-methoxy-cyclohexyloxy)-benzonitrile]: 76 nM; for `CC1CCCC(Oc2ccc(C#N)c(Cl)c2)C1C` (centres unmarked) [Example 20, 2-Chloro-4-(2,3-dimethyl-cyclohexyloxy)-benzonitrile]: 227 nM; for `CC1CCCCC1Oc1ccc(C#N)c(Cl)c1` (centres unmarked) [Example 28, 2-Chloro-4-(2-methyl-cyclohexyloxy)-benzonitrile]: 49 nM. Still for that read-out and setting: the same measure for `N#Cc1ccc(OC2CCCCC2c2ccccc2)cc1Cl` (centres unmarked) [Example 29, 2-Chloro-4-(2-phenyl-cyclohexyloxy)-benzonitrile]: 89 nM; for `C[C@H]1CCCC[C@@H]1Oc1ccc(C#N)c(Cl)c1` [Example 30, 2-Chloro-4-(2-(S)-methyl-(S)-cyclohexyloxy)-benzonitrile]: 24 nM; for `N#Cc1ccc(O[C@@H]2CCCC[C@@H]2c2ccccc2)cc1Cl` [Example 56, (1R,2R)-2-Chloro-4-(2-phenyl-cyclohexyloxy)-benzonitrile]: 366 nM. The same measure, in the same setting: the same measure for `N#Cc1ccc(O[C@@H]2CCCC[C@H]2c2ccccc2)cc1Cl` [Example 58, (1R,2S) 2-Chloro-4-(2-phenyl-cyclohexyloxy)-benzonitrile]: 278 nM.

The assay is the same for the next values; noted with them: hAR extract, 1 nM 3H-DHT, one hour at 4° C.; mean of multiple tests; read-out: AR Binding IC50.
On to `C[C@H]1CCC[C@@H]1Oc1ccc(C#N)c(C(F)(F)F)c1` (relative stereo) [Example 2, 4-(trans-2-Methyl-cyclopentyloxy)-2-trifluoromethyl-benzonitrile], for which the IC50 stood at 153 nM.

As for `C=CCO[C@H]1CCC[C@H]1Oc1ccc(C#N)c(Cl)c1` (relative stereo) [Example 37, 4-(cis-2-Allyloxy-cyclopentyloxy)-2-chloro-benzonitrile], the half-maximal inhibitory concentration (IC50) was 134 nM.

As for `C=CCO[C@H]1CCC[C@@H]1Oc1ccc(C#N)c(Cl)c1` (relative stereo) [Example 38, 4-(trans-2-Allyloxy-cyclopentyloxy)-2-chloro-benzonitrile], the IC50 came to 120 nM.

Consider `N#Cc1ccc(OC2CCCCCC2)cc1C(F)(F)F` [Example 5, 4-cycloheptyloxy-2-trifluoromethyl-benzonitrile], for which the IC50 was 319 nM. On the same count and under the same terms, the same measure for `CC1CCCC(Oc2ccc(C#N)c(C(F)(F)F)c2)C1C` (centres unmarked) [Example 6, 4-(2,3-Dimethyl-cyclohexyloxy)-2-trifluoromethyl-benzonitrile]: 356 nM; for `C=C(C)[C@H]1CC[C@H](C)[C@@H](Oc2ccc(C#N)c(C(F)(F)F)c2)C1` [Example 13, (1S,2S,5S)-4-(5-Isopropenyl-2-methyl-cyclohexyloxy)-2-trifluoromethyl-benzonitrile]: 102 nM; for `COC1CCC(Oc2ccc(C#N)c(C(F)(F)F)c2)CC1` (centres unmarked) [Example 15, 4-(4-Methoxy-cyclohexyloxy)-2-trifluoromethyl-benzonitrile]: 243 nM. Same read-out and setting: as for `C[C@H]1CC[C@@H](Oc2ccc(C#N)c(C(F)(F)F)c2)CC1` [Example 16], the figure is 479 nM; as for `C[C@H]1CCC[C@@H]1Oc1ccc(C#N)c(C(F)(F)F)c1` [Example 17, (1S,2S)-4-(2-Methyl-cyclopentyloxy)-2-trifluoromethyl-benzonitrile], 252 nM; as for `N#Cc1ccc(OC2CCC2)cc1C(F)(F)F` [Example 18, 4-Cyclobutoxy-2-trifluoromethyl-benzonitrile], 466 nM. Same read-out and setting: as for `C[C@@H]1CCCC[C@H]1Oc1ccc(C#N)cc1Cl` [Example 42, (1R,2R)-3-Chloro-4-(2-methyl-cyclohexyloxy)benzonitrile], the figure is 343 nM. With `CC1(C)CC(Oc2ccc(C#N)cc2Cl)CC(C)(C)C1` [Example 44, 3-Chloro-4-(3,3,5,5-tetramethyl-cyclohexyloxy)-benzonitrile], the IC50 is 410 nM. Still for that read-out and setting: as for `C[C@@H]1CCC[C@H](Oc2ccc(C#N)c(Cl)c2)C1` [Example 48, (1S,3R)-2-Chloro-4-(3-methyl-cyclohexyloxy)-benzonitrile], the figure is 218 nM; as for `CC1CCC(Oc2ccc(C#N)c(Cl)c2)CC1C` (centres unmarked) [Example 51, 2-Chloro-4-(3,4-dimethyl-cyclohexyloxy)-benzonitrile], 442 nM; as for `C[C@H]1CC[C@@H](Oc2ccc(C#N)c(Cl)c2)CC1` [Example 54, (1S,4S)-2-Chloro-4-(4-methyl-cyclohexyloxy)-benzonitrile], 356 nM. The same measure, in the same setting: the same measure for `C[C@H]1CC[C@H](Oc2ccc(C#N)cc2Cl)CC1` [Example 59, (1S,4R)-3-Chloro-4-(4-methyl-cyclohexyloxy)-benzonitrile]: 341 nM; for `C[C@@H]1CCC[C@H](Oc2ccc(C#N)cc2Cl)C1` [Example 60, (1S,3R)3-Chloro-4-(3-methyl-cyclohexyloxy)-benzonitrile]: 388 nM. On the same count and under the same terms, as for `CC(C)[C@H]1CC[C@H](C)C[C@@H]1Oc1ccc(C#N)cc1Cl` [Example 61, (1S,2R,5S)-3-Chloro-4-(2-isopropyl-5methyl-cyclohexyloxy)-benzonitrile], the figure is 257 nM; as for `CC1CCCC(Oc2ccc(C#N)cc2Cl)C1C` (centres unmarked) [Example 63, 3-Chloro-4-(2,3-dimethyl-cyclohexyloxy)-benzonitrile], 374 nM. As for `C[C@H]1CC(Oc2ccc(C#N)c(Cl)c2)C[C@H](C)C1` (stereo partly drawn) [Example 65, (3R,5R)-2-Chloro-4-(trans)-(3,5-dimethyl-cyclohexyloxy)-benzonitrile], the half-inhibitory concentration (IC50) stood at 437 nM. Take `C[C@@H]1CCC[C@H]1Oc1ccc(C#N)cc1Cl` [Example 66, (1R,2R)-3-Chloro-4-(2-methyl-cyclopentyloxy)-benzonitrile]: the IC50 is 402 nM.

Values taken from patent publication US7670613B2, “Androgen modulators” (Pfizer Inc., priority 2004, dated 2010).
